The source of these data is ChEMBL document CHEMBL4419178, “Yap1 inhibitors that target the interaction of yap1 with oct4” (2018).

A short description of data set [1]: Lipophilicity, logP of the compound. The data set is classed as physicochemical. The conditions noted are these: octanol/water.
For data set [2], the target named is Transcriptional coactivator YAP1 (Homo sapiens) (UniProt P46937). As to the kind of experiment: Inhibition of YAP1 (unknown origin) assessed as disruption in YAP1/OCT4 interaction at 50 uM by cell based assay.
In data set [3] the test system is NCI-H1650. As to the kind of experiment: Inhibition of self-renewal capacity in stem-like side-population cells of human NCI-H1650 cells assessed as reduction in number of spheres at 1 to 20 uM incubated for 10 days by sphere formation assay. The data set is classed as functional, cell-based.
Data set [4] deals with Transcriptional coactivator YAP1 (Homo sapiens) (UniProt P46937). The data set is described as follows: Inhibition of YAP1 (unknown origin) assessed as disruption in YAP1/OCT4 interaction at 10 uM by ELISA relative to control. A general note: ELISA stands for enzyme-linked immunosorbent assay.
For data set [5] the target is unchanged. The data set is described as follows: Inhibition of YAP1 (unknown origin) assessed as disruption in YAP1/OCT4 interaction at 5 uM by ELISA relative to control.
The test system of another data set is A549. As to the kind of experiment: Cytotoxicity in human A549 cells assessed as reduction in cell viability at 1 to 20 uM incubated for 72 hrs by MTT assay. The data set is classed as functional, cell-based. A general note: Tetrazolium assays rely on reduction of a dye to a coloured formazan, in cell work by metabolically active cells.
The subject of data set [6] is NCI-H1650. The data set is described as follows: Cytotoxicity in human NCI-H1650 cells assessed as reduction in cell viability at 1 to 20 uM incubated for 72 hrs by MTT assay. The data set is classed as functional, cell-based.
In another data set the test system is NCI-H2286. As to the kind of experiment: Cytotoxicity in human NCI-H2286 cells assessed as reduction in cell viability at 5 to 50 uM incubated for 96 hrs by MTT assay. The data set is classed as functional, cell-based.
Data set [7] concerns NCI-H1650. As to the kind of experiment: Cytotoxicity in human NCI-H1650 cells assessed as reduction in cell viability at 20 to 50 uM incubated for 72 hrs by MTT assay. The data set is classed as functional, cell-based.
The target of data set [8] is Transcriptional coactivator YAP1 (Homo sapiens) (UniProt P46937). The data set is described as follows: Inhibition of YAP1 in human NCI-H1650 cells assessed as disruption in YAP1/OCT4 interaction at 20 to 50 uM incubated for 48 hrs by proximity ligation assay. The data set is classed as cell-based.
The subject of data set [9] is NCI-H1650. The data set is described as follows: Cytotoxicity in human NCI-H1650 cells assessed as reduction in cell viability at 20 to 50 uM incubated for 24 hrs followed by medium replacement with RPMI medium with 10% FCS for 48 hrs by MTT assay. The data set is classed as functional, cell-based.
For data set [10], the system named is NCI-H1650. The data set is described as follows: Cytotoxicity in human NCI-H1650 cells assessed as induction of cell killing in presence of cancer associated fibroblasts at 20 to 50 uM incubated for 24 to 48 hrs by cytotracker-red/green dye staining based immunofluorescence microscopy. The data set is classed as functional.
A short description of data set [11]: Cytotoxicity in human cancer associated fibroblasts at 20 to 50 uM incubated for 24 to 48 hrs by cytotracker-red/green dye staining based immunofluorescence microscopy.
Data set [12] concerns NCI-H1650. The data set is described as follows: Inhibition of self-renewal capacity in stem-like side-population cells of human NCI-H1650 cells assessed as reduction in number of spheres at 5 to 50 uM incubated for 10 days by sphere formation assay. The data set is classed as functional, cell-based.
The next data set concerns NCI-H2170. The data set is described as follows: Cytotoxicity in human NCI-H2170 cells assessed as reduction in cell viability at 5 to 50 uM incubated for 96 hrs by MTT assay. The data set is classed as functional, cell-based.
Data set [13] concerns NCI-H1650. As to the kind of experiment: Inhibition of YAP1 in human NCI-H1650 cells assessed as disruption in YAP1/TEAD2 interaction at 20 to 50 uM incubated for 48 hrs by proximity ligation assay. The data set is classed as cell-based.

Activity calls are given as the source filed them. The rule behind the calls is not given here.

Chain of Transcriptional coactivator YAP1 (Homo sapiens) (P46937 whole entry): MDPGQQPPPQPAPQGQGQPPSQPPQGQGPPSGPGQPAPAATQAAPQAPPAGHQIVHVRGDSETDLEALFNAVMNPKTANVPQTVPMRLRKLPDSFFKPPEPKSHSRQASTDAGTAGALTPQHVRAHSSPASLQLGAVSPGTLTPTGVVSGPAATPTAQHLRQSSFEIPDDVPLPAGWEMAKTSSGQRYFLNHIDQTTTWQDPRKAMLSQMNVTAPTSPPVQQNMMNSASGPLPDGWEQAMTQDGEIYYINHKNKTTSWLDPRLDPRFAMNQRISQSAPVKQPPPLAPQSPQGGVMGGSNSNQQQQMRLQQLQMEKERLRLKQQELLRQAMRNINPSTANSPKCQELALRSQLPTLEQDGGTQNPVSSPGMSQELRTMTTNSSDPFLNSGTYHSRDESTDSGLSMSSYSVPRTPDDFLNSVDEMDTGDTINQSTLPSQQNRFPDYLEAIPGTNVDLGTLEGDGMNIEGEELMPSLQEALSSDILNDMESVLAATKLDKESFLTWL

What is called logP is a log measure of how a compound divides between an organic and an aqueous phase. Read a high logP as higher lipophilicity. What is called inhibition is the share of the control response that was lost under treatment. In data set [1], `COC(=O)[C@H](Cc1ccc(OCc2ccccc2)cc1)NC(=O)CC1CCN(C(=O)OC(C)(C)C)CC1` displayed a logP of 3.9 to 3.94. For the same molecule, the inhibition in [2] is above 75%; in data set [4], 80.8%; in data set [5], 72.6%. For the same molecule, in the data set on NCI-H1650 [3], the inhibition entry was “Active”.

In [1], `COC(=O)[C@H](Cc1ccc(OCc2ccccc2)cc1)NC(=O)CC1CCN(C(=O)CCc2ccccc2)CC1` yielded a logP of 4.7. For the same molecule, the result in the data set on A549, in the data set with NCI-H1650 [6], in the data set on NCI-H2286, with NCI-H1650 [7], with NCI-H1650 [9] and with NCI-H1650 [10] was Active. In the data set on NCI-H2170, the outcome was Active. Also, the inhibition in [2] and in data set [4] was 90% each time. Moreover, the inhibition result (in data set [8]; in the data set on NCI-H1650 [12]; with NCI-H1650 [13]) was “Active” throughout. The Activity result in [11] is “Non-Toxic”.
